Test results taken from patent publication US20250171459A1, “2-METHYL-4',5'-DIHYDROSPIRO[PIPERIDINE-4,7'-THIENO[2,3-C]PYRAN] DERIVATIVES AS INHIBITORS OF APOL1 AND METHODS OF USING SAME” (Vertex Pharmaceuticals Incorporated, priority 2022, published 2025).

Molecular target: T1, APOL1 (Homo sapiens, UniProt O14791)
T1 sequence (O14791 1-398 S342G/I384M): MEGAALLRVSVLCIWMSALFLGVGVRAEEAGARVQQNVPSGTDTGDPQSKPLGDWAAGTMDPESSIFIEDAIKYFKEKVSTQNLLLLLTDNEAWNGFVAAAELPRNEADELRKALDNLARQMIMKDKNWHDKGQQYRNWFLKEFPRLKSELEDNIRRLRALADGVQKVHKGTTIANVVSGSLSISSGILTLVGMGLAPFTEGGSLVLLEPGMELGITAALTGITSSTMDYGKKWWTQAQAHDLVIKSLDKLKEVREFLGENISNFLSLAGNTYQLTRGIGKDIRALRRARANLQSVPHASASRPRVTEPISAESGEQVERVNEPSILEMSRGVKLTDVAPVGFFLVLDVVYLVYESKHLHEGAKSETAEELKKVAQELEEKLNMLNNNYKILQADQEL
Test: MultiTox-Fluor Multiplex Cytotoxicity Assay in tet-inducible APOL1 T-REx-HEK293 cells (cell rescue, ratio of dead to live cells)
Format: cell-based
Details: tet-inducible transgenic APOL1 T-REx-HEK293 cell lines, 50 ng/mL tet, 24 hours; read-out: IP50 (i.e., IC50 for cell proliferation)
Excerpt: The MultiTox-Fluor Multiplex Cytotoxicity Assay is a single-reagent-addition, homogeneous, fluorescence assay that measures the number of live and dead cells simultaneously in culture wells. The assay measures cell viability and cytotoxicity by detecting two distinct protease activities. […] The substrate enters intact cells, where it is cleaved to generate a fluorescent signal proportional to the number of living cells. […] A ratio of dead to live cells is used to normalize data.
The MultiTox reagent was added to each well and placed back in the incubator for an additional 30 minutes. The plate was read on the EnVision plate reader. A ratio of dead to live cells was used to normalize, and data was imported, analyzed, and fit using Genedata Screener (Basel, Switzerland) software. Data was normalized using percent of control, no tet (100% viability), and 50 ng/mL tet treated (0% viability), and fit using Smart Fit. The reagents, methods, and complete protocol for the MultiTox assay are described below.
Cells were washed with DPBS and then trypsinized to dissociate from the flask. Media was used to quench the trypsin, cells were then pelleted at 200 g and resuspended in fresh cell assay media (DMEM, 2% Tet-free FBS, 2 mM L-glutamine, 100 Units/mL penicillin-streptomycin). […] The plates were then incubated at room temperature for one hour.
Tetracycline is needed to induce APOL1 expression. 1 mg/mL tet stock in water was diluted to 250 ng/mL (5×) in cell assay media.
Compounds were dispensed at 200 nL in DMSO. The final top concentration was 10 μM with a 10 point 3-fold dilution in duplicate in the MultiTox assay.
20 μL was transferred from the 5× tet plate to the ARP and mixed, then 5 μL of 5× tet and the compounds were transferred to the cell plate and mixed using the Bravo. The cell plate was placed in the humidified 37° C. 5% CO2 incubator for 24 hours.
The MultiTox-Fluor Multiplex Cytotoxicity Assay was performed in accordance with the manufacturer's protocol. After cells were incubated with tet and compound for 24 hours, 25 μL of 1× MultiTox reagent was added to each well using the Multidrop dispenser; the plates were placed on a plate shaker (600 rpm) for 2 minutes, then centrifuged briefly and placed back in the 37° C. incubator for 30 minutes. The cell viability (excitation: 400 nm, emission: 486 nm) and cytotoxicity (excitation: 485 nm, emission: 535 nm) were read using the EnVision plate reader. A ratio of dead (cytotoxicity) to live (viability) cells was reported. Data was exported and analyzed in Genedata. Data was normalized using percent of control, no tet (100% viability), and 50 ng/mL tet treated (0% viability), and fit using Smart Fit settings in Genedata.

SMILES	IC50
C[C@H]1C[C@@]2(CCN1CC1CCCO1)OCCc1cc(CC(F)F)sc12 (stereo partly shown) [Compound 586]	500 to 1000 nM
CCc1cc2c(s1)CCOC21CCN(Cc2ccc(C(=O)N[C@H]3CC[C@H](O)CC3)nc2)CC1 [Compound 1043, 5-((2′-ethyl-6′,7′-dihydrospiro[piperidine-4,4′-thieno[3,2-c]pyran]-1-yl)methyl)-N-((1r,4r)-4-hydroxycyclohexyl)picolinamide]	< 100 nM
C[C@H]1C[C@@]2(CCN1Cc1cn(CCS(C)(=O)=O)nn1)OCCc1cc(Cl)sc12 [Compound 696, (2′S, 7R)-2-chloro-2′-methyl-1′-[[1-(2-methylsulfonylethyl)triazol-4-yl]methyl]spiro[4,5-dihydrothieno[2,3-c]pyran-7,4-piperidine]]	100 to 500 nM
C[C@H]1C[C@@]2(CCN1Cc1cnn(C)c1)OCCc1cc(CC(F)F)sc12 [Compound 565]	< 100 nM
[2H]c1c(CC)sc2c1[C@]1(CCN(Cc3cn(CCS(C)(=O)=O)nn3)[C@@H](C)C1)OCC2 [Compound 527, (2′S,4R)-3-deuterio-2-ethyl-2′-methyl-1′-[[1-(2-methylsulfonylethyl)triazol-4-yl]methyl]spiro[6,7-dihydrothieno[3,2-c]pyran-4,4′-piperidine]]	< 100 nM
C[C@H]1C[C@@]2(CCN1Cc1cn[nH]c1)OCCc1c2sc(C(F)(F)F)c1CO [Compound 873, [(2′S, 7R)-2′-methyl-1′-(1H-pyrazol-4-ylmethyl)-2-(trifluoromethyl)spiro[4,5-dihydrothieno[2,3-c]pyran-7,4′-piperidine]-3-yl]methanol]	< 100 nM
CCc1cc2c(s1)CCO[C@@]21CCN(Cc2cn(CCc3c[nH]cn3)nn2)[C@@H](C)C1 [Compound 48]	< 100 nM
COCCc1ncc(CN2CC[C@]3(C[C@@H]2C)OCCc2c3sc(Cl)c2CO)cn1 [Compound 745]	100 to 500 nM
C[C@H]1C[C@@]2(CCN1Cc1cnn(CCO)c1)OCCc1c2sc(C(F)(F)F)c1CO [Compound 875]	< 100 nM
CCc1cc2c(s1)CCO[C@@]21CCN(Cc2cn(CC3CCOC3)nn2)[C@@H](C)C1 (stereo partly shown) [Compound 131]	100 to 500 nM
CCc1cc2c(s1)CCO[C@@]21CCN(CC2CN(S(=O)(=O)CCO)C2)[C@@H](C)C1 [Compound 492]	100 to 500 nM
C[C@H]1C[C@@]2(CCN1Cc1ccc(F)cn1)OC[C@H](O)c1cc(Cl)sc12 [Compound 792]	100 to 500 nM
CCc1cc2c(s1)CCO[C@]21CCN(Cc2cn(CCS(C)(=O)=O)nn2)[C@H](C)C1 [Compound 10, (2′R,4S)-2-ethyl-2′-methyl-1′-[[1-(2-methylsulfonylethyl)triazol-4-yl]methyl]spiro[6,7-dihydrothieno[3,2-c]pyran-4,4′-piperidine]]	500 to 1000 nM
C[C@H]1C[C@@]2(CCN1Cc1cnn(CCO)c1)OCCc1cc(Cl)sc12 [Compound 632]	< 100 nM
CCc1cc2c(s1)CCO[C@@]21CCN(Cc2nc3ccccc3[nH]2)[C@@H](C)C1 [Compound 291]	100 to 500 nM
CCc1cc2c(s1)CCO[C@@]21CCN(C[C@H]2C[C@@H](NS(=O)(=O)C(C)C)C2)[C@@H](C)C1 [Compound 395]	< 100 nM
CCc1cc2c(s1)CCO[C@@]21CCN(C[C@H]2C[C@@H](NS(=O)(=O)c3cccc(C)c3)C2)[C@@H](C)C1 [Compound 406]	< 100 nM
C[C@H]1C[C@@]2(CCN1Cc1ccc(NS(=O)(=O)C3CC3)nc1)OCC(O)c1cc(Cl)sc12 (stereo partly shown) [Compound 824]	< 100 nM
C[C@H]1C[C@@]2(CCN1Cc1cnn(CC(O)CC3(O)COC3)c1)OC[C@@H](O)c1cc(C(F)(F)F)sc12 (stereo partly shown) [Compound 975]	< 100 nM
C[C@H]1C[C@@]2(CCN1Cc1cnn(CC3(O)CCC3)c1)OCCc1c2sc(C(F)(F)F)c1CO [Compound 948]	< 100 nM
CCc1cc2c(s1)CCO[C@@]21CCN(Cc2cn(CCS(=O)(=O)NCC(C)O)nn2)[C@@H](C)C1 (stereo partly drawn) [Compound 7, 2-[4-[[(2′S,4R)-2-ethyl-2′-methyl-spiro[6,7-dihydrothieno[3,2-c]pyran-4,4′-piperidine]-1′-yl]methyl]triazol-1-yl]-N-(2-hydroxypropyl)ethanesulfonamide]	< 100 nM
CCc1cc2c(s1)CCO[C@@]21CCN(Cc2ncon2)[C@@H](C)C1 [Compound 293]	500 to 1000 nM
COCc1c(C(F)F)sc2c1CCO[C@@]21CCN(Cc2cnn(CCS(C)(=O)=O)c2)[C@@H](C)C1 [Compound 763, (2′S, 7R)-2-(difluoromethyl)-3-(methoxymethyl)-2′-methyl-1′-[[1-(2-methylsulfonylethyl)pyrazol-4-yl]methyl]spiro[4,5-dihydrothieno[2,3-c]pyran-7,4′-piperidine]]	< 100 nM

SMILES	IC50
CC(O)Cn1cc(CN2CC[C@]3(C[C@@H]2C)OC[C@](O)(C(F)F)c2cc(Cl)sc23)nn1 (stereo partly shown) [Compound 837]	< 100 nM
C[C@H]1C[C@@]2(CCN1Cc1ncn3ccccc13)OCCc1cc(Cl)sc12 [Compound 686]	500 to 1000 nM
C[C@H]1C[C@@]2(CCN1Cc1cn(CC(C)(CO)CO)nn1)OCCc1cc(CC(F)F)sc12 [Compound 546]	< 100 nM
CCc1cc2c(s1)CCO[C@@]21CCN(Cc2cn(Cc3nc(C)cc(C)n3)nn2)[C@@H](C)C1 [Compound 53]	500 to 1000 nM
CCc1cc2c(s1)CCOC21CCN(Cc2cn(C(C)C(=O)NCC(C)O)nn2)CC1 (stereo not shown) [Compound 1119]	500 to 1000 nM
C[C@H]1C[C@@]2(CCN1Cc1cnn(C[C@@H]3CCC(=O)N3)c1)OCCc1c2sc(C(F)(F)F)c1CO [Compound 922]	< 100 nM
C[C@H]1C[C@@]2(CCN1Cc1cnn(C)c1)OCC(C)(O)c1cc(Cl)sc12 (stereo partly drawn) [Compound 848, (2′S, 7R)-2-chloro-2′,4-dimethyl-1′-[(1-methylpyrazol-4-yl)methyl]spiro[5H-thieno[2,3-c]pyran-7,4′-piperidine]-4-ol]	< 100 nM
CCNC(=O)CCn1cc(CN2CC[C@]3(C[C@@H]2C)OCCc2c3sc(C(F)(F)F)c2CO)cn1 [Compound 900]	< 100 nM
CCc1cc2c(s1)CCO[C@@]21CCN(C[C@H]2C[C@@H](NC(=O)OCC(C)C)C2)[C@@H](C)C1 [Compound 373]	100 to 500 nM
CCc1cc2c(s1)CCO[C@@]21CCN(C[C@H]2C[C@@H](NS(=O)(=O)c3ccccc3Cl)C2)[C@@H](C)C1 [Compound 409]	< 100 nM
COc1cncc(CN2CC[C@]3(C[C@@H]2C)OCCc2c3sc(Cl)c2CO)c1 [Compound 727]	100 to 500 nM
CCn1cc(CN2CC[C@]3(C[C@@H]2C)OCCc2c3sc(Cl)c2CO)cn1 [Compound 760]	100 to 500 nM
C[C@H]1C[C@@]2(CCN1C1CCCC1O)OCCc1cc(CC(F)F)sc12 (stereo partly shown) [Compound 604]	100 to 500 nM
CCc1cc2c(s1)CCO[C@@]21CCN(C[C@H]2C[C@@H](NC(=O)C3CC(=O)N(C)C3)C2)[C@@H](C)C1 (stereo partly shown) [Compound 362]	100 to 500 nM
CCc1cc2c(s1)CCO[C@@]21CCN(Cc2cn(CCSCC(C)(C)O)nn2)[C@@H](C)C1 [Compound 24]	< 100 nM
CCc1cc2c(s1)CCO[C@@]21CCN(CC(O)CC(F)(F)F)[C@@H](C)C1 (stereo partly shown) [Compound 244]	100 to 500 nM
CCc1cc2c(s1)CCO[C@@]21CCN(CC2CN(C(=O)Cc3cnn(C)c3)C2)[C@@H](C)C1 [Compound 455]	100 to 500 nM
CCc1cc2c(s1)CCO[C@@]21CCN(Cc2cn([C@H]3CCN(C(=O)OC(C)(C)C)C3)nn2)[C@@H](C)C1 [Compound 17]	< 100 nM
CCc1cc2c(s1)CCOC21CCN(Cc2ccc(NS(C)(=O)=O)cc2)CC1 [Compound 1129]	100 to 500 nM
CCc1cc2c(s1)CCO[C@@]21CCN(Cc2cn(CC3CCC4(CC3)COC4)nn2)[C@@H](C)C1 [Compound 78]	100 to 500 nM
CCc1cc2c(s1)CCO[C@@]21CCN(Cc2cn(C3CC(CO)N3)nn2)[C@@H](C)C1 (stereo partly shown) [Compound 128]	100 to 500 nM
C[C@H]1C[C@@]2(CCN1CC1CCOC1)OCCc1cc(CC(F)F)sc12 (stereo partly shown) [Compound 583]	100 to 500 nM
CCc1cc2c(s1)CCOC21CCN(Cc2cnn(C)c2)CC1 [Compound 1138]	100 to 500 nM
